Reference: US20260174766A1, “COMBINATION OF MENIN INHIBITOR(S) AND IMMUNOPROTEASOME INHIBITOR(S) FOR TREATMENT OF LEUKEMIA” (Medizinische Hochschule Hannover, priority 2022, published 2026)

How the values were obtained:
[1] = tested on: MLLr leukemic cells (MLL-AF9 and MLL-AF4 PDX); experiment: Patient derived xenografts (MLL-AF9, MLL-AF4) in NSGW41 mice treated with PR-957; type: in vivo, mouse
Text: NOD.Cg-Prkdc^scid Il2rg^tm1Wjl Tg(CMV-IL3, CSF2, KITLG) 1Eav/MloySzJ (NSGS), NOD.Cg-Prkdc^scid Il2rg^tm1Wjl/SzJ (NSG) or NOD.Cg-Prkdc^scid Il2rg^tm1Wjl/RJ (NXG) were obtained from The Jackson Laboratory (Bar Harbor, ME, USA). 8-12-weeks old adult mice (male and female) were irradiated with 2 Gy (single dose) before transplantation. 1×10^5 MOLM-13, ML-2 or MV-4; 11 cells transduced with either of two PSMB8/LMP7 shRNAs or non-targeting control; with a pLEX vector containing the sequence of BASP1 or an empty vector; or treated ex vivo with the indicated inhibitors were injected intravenously via the tail vein. For patient derived xenograft experiments (PDX) of human MLLr leukemia we used an improved model for human HSC transplantation and analysis, that has been developed from immune-deficient mouse strains containing Kit mutations: NOD.Cg-^KitW-41J Prkdc^scid Il2rg^tm1Wjl/WaskJ (NSGW41) (Cosgun et al., 2014). These mice can be engrafted without prior conditioning and therefore maintain an intact niche and microenvironment. Human myeloid engraftment (hCD45+ CD13+) was analyzed by flow cytometry.
In order to assess for the functional relevance of immunoproteasome component LMP7/PSMB8 in human AML, genetic inactivation of LMP7/PSMB8 by RNAi was performed with two independent shRNAs against LMP7/PSMB8 (shPSMB8-3 and shPSMB8-2) compared to non-targeting control (shNT) in MLLr cell lines. […] However, induction of apoptosis could only be detected in less than 40% of cells with no significant variability between MLLr cell lines and the individual shRNAs. Efficient LMP7/PSMB8 depletion was confirmed by Western blotting (FIG. 1E). […] Following xenotransplantation, the relative abundance of human AML cells in the murine peripheral blood was measured over time by flow cytometry, and PR-957 treatment was initiated once hCD45+ AML cells constituted 0.1%-0.5% of PB cells. […]

[2] = tested on: MLL-rearranged murine leukemic cells; experiment: Methylcellulose colony-forming assay, MLL-rearranged murine leukemic cells; type: cell-based, mouse
Experimental: Primary mouse bone marrow (BM) cells (transduced with MLL-AF9/KRAS, MLL-AF6, or AML1-ETO/KRAS) were seeded in MethoCult GF M3434 (StemCell Technologies) at a concentration of 1×10^3 cells/replicate. Colonies propagated in culture were scored at day 8. For re-plating of primary mouse BM cells, colonies were harvested from the methylcellulose medium, washed with PBS/1% FBS and seeded again at a concentration of 1×10^3 cells/replicate. MOLM-13 or ML-2 cells infected with either control or PSMB8/LMP7-specific shRNAs were plated at a concentration of 1×10^3 cells in MethoCult H4230 (StemCell Technologies) supplemented with 20% FBS and colony numbers were counted on day 10-14.

COc1ccc(C[C@H](NC(=O)[C@H](C)NC(=O)CN2CCOCC2)C(=O)N[C@@H](Cc2ccccc2)C(=O)[C@]2(C)CO2)cc1 [PR-957, (2S)-3-(4-methoxyphenyl)-N-[(2S)-1-[(2S)-2-methyloxiran-2-yl]-1-oxo-3-phenylpropan-2-yl]-2-[[(2S)-2-[(2-morpholin-4-ylacetyl)amino]propanoyl]amino]propanamide]
antileukemic activity in PDX models ([1]; 3 mg/KG i.v. 5 consecutive days, every 2 weeks, escalated to 6 and 10 mg/KG, NSGW41 mice): potent antileukemic activity
cell morphology of AML cells (cytospin analysis) ([1]; PDX after onset of AML, FIG. 1K): signs of cellular differentiation
survival and disease penetrance in PDX ([1]; over a period of 100 days, FIG. 1J): improved survival and reduced disease penetrance
colony size and shape ([2]; MLL-AF9 transformed leukemia): reduction of colony size and changes in colony shape
clonogenic potential (colony counts) ([2]; nanomolar concentrations (100 nM or 200 nM), serial replating, FIG. 2A): profound dose dependent reduction of clonogenic potential
